The subject of assay [1] is rat. Conditions: cited from earlier work.
In assay [2] the test system is murine neuroblastoma Neuro2a cells. The assay is described as follows: Intracellular ROS formation level (H2DCF-DA). In kind it is cell-based. The conditions noted are these: 6-OHDA 25 µM alone. The procedure:
We estimated whether rHCIQ2c1 is able to inhibit reactive oxygen species (ROS) production. After incubation of Neuro2a cells with rHCIQ2c1 (up to 10 µM) and 6-OHDA (25 µM), ROS content was evaluated by measurement of dichlorofluorescin intensity.
The intracellular ROS level was detected using 2,7-dichlordihydrofluorescein diacetate (H2DCF-DA) solution (Molecular Probes, final concentration 10 µM). In this study, mouse neuroblastoma Neuro2a cells seeded on 96-well plates were washed twice with serum-free DMEM and thereafter incubated for 1 h in serum-free MEM medium in the presence of compounds in concentrations from 10 pM to 10 µM. Cell were treated with 6-OHDA (25 μM) for 30 min at 37 °C with 5% CO2. Followed by treatment with 6-OHDA, the cells were washed once with PBS. After washing with serum-free DMEM medium, the cells were loaded with H2DCF-DA for 30 min. The intensity of dichlorofluorescin fluorescence was measured with plate reader PHERAstar FS (BMG Labtech, Germany) at λex = 485 nm and λem = 518 nm. The cytoprotective effect of peptides and the increase in cell viability under their action was calculated as a percentage, taking the cell viability treated with 6-OHDA as 100%.

On to `Nc1ccncc1` [4-aminopyridine], for which, in assay [1], the “Effect on MPTP-induced neurodegeneration and rat behavioral disturbances” value was “suppresses MPTP-induced neurodegeneration and rat behavioral disturbances”.

Regarding `NCCc1cc(O)c(O)cc1O` [6-OHDA, 6-hydroxydopamine, reference compound], the ROS level entry in assay [2] is given as “highest ROS level”.

The record behind these values is article PMC7060258 (Scientific Reports, 2020).
